Results: patent US20190093170A1, “USE OF TRANSLATIONAL PROFILING TO IDENTIFY TARGET MOLECULES FOR THERAPEUTIC TREATMENT” (THE REGENTS OF THE UNIVERSITY OF CALIFORNIA, priority 2013, published 2019)

Test system: Pten^L/L prostate cancer mouse model
Experiment: Pharmacological treatment of Pten^L/L mice (preclinical trial; IHC, immunofluorescence, histology, MRI, lymph node metastasis)
Type: in vivo
Details: 28 days, RAD001 10 mg/kg daily
Source text: Weight measurements were taken every 3 days to monitor for toxicity. For the 28-day study, mice were imaged via MRI at day 0 and day 28 in a 14-T GE MR scanner (GE Healthcare).
Whole mouse prostates were removed from wild-type and Pten^L/L mice, microdissected, and frozen in liquid nitrogen. Frozen tissues were subsequently manually disassociated using a biopulverizer (Biospec) and additionally processed for protein and mRNA analysis as described above.
Prostates and lymph nodes were dissected from mice within 2 hr of the indicated treatment and fixed in 10% formalin overnight at 4° C. Tissues were subsequently dehydrated in ethanol (Sigma) at room temperature, mounted into paraffin blocks, and sectioned at 5 μm. Specimens were de-paraffinized and rehydrated using CitriSolv (Fisher) followed by serial ethanol washes. […] Sections were washed in distilled water followed by TBS washes. The sections were then incubated in 5% goat serum, 1% BSA in TBS for 1 hr at room temperature. Various primary antibodies were used, including those specific for keratin 5 (Covance), cytokeratin 8 (Abcam and Covance), YB1 (Abcam), vimentin (Abcam), MTA1 (Cell signaling), CD44 (BD Pharmingen), and the androgen receptor (Epitomics), which were diluted 1:50-1:500 in blocking solution and incubated on sections overnight at 4° C. Specimens were then washed in TBS and incubated with the appropriate Alexa 488 and 594 labeled secondary (Invitrogen) at 1:500 for 2 hr at room temperature, with the exception of YB1 which was incubated with biotinylated anti-rabbit secondary (Vector) followed by incubation with Alexa 594 labeled Streptavidin (Invitrogen). A final set of washes in TBS was completed at room temperature followed by mounting with DAPI Hardset Mounting Medium (Vector Lab). A Zeiss Spinning Disc confocal (Zeiss, CSU-X1) was used to image the sections at 40×-100×. Individual prostate cells were quantified for mean fluorescence intensity (m.f.i.) using the Axiovision (Zeiss, Release 4.8) densitometric tool.
Mouse lymph nodes were processed as described above and stained for CK8 and androgen receptor. Lymph nodes were imaged using a Zeiss AX10 microscope. Metastases were identified and areas were measured using the Axiovision (Zeiss, Release 4.8) measurement tool.
Immunohistochemistry was performed as described above (see “Immunofluorescence”) with the exception that immediately after antigen […] and TBS washes, specimens were incubated in 3% hydrogen peroxide in TBS followed by TBS washes. The following primary antibodies were used: phospho-AKT^S473 (Cell Signaling), phospho-rpS6^S240/244 (Cell Signaling), phospho-4EBP1^T37/46 (Cell Signaling), phospho-histone H3 (Upstate), and cleaved caspase (Cell Signaling). […] The protein of interest was detected using DAB (Sigma). […]

[1] = ATP site inhibitor of mTOR 1 mg/kg daily

In the case of `CO[C@H]1C[C@@H]2CC[C@@H](C)[C@@](O)(O2)C(=O)C(=O)N2CCCC[C@H]2C(=O)O[C@H]([C@H](C)C[C@@H]2CC[C@@H](OCCO)[C@H](OC)C2)CC(=O)[C@H](C)/C=C(\C)[C@@H](O)[C@@H](OC)C(=O)[C@H](C)C[C@H](C)/C=C/C=C/C=C/1C` [RAD001], the “4EBP1 and p70S6K1/2 phosphorylation” value [1] is reported as “only decreased p70S6K1/2 phosphorylation levels”, the “apoptosis (cleaved caspase 3)” value [1] is reported as “no significant effect” and the “proliferation (phospho-histone H3)” value [1] is reported as “limited decrease in cell proliferation”. For the same molecule, the “regression of PIN lesions” value was “only partial regression of PIN lesions”.
